pIC50: −log10 of the molar value. “Also recorded” adds a separate entry of the source. Like-named read-outs stand apart in the source and are kept apart here.
Columns and labels:
Type in all cases: cell-based
[1] = tested on: HAdV-C5 wt; assay: Immunofluorescence count of E2A and capsid expressing infected cells (Fig. 1A)
Procedure: (§1) • Figure 1: ATO efficiently reduces HAdV infectivity (cf. Example 1). H1299 cells were infected with HAdV-C5 wt at a multiplicity of 5 FFU/cell, treated with the depicted concentrations of ATO at 2 h.p.i., fixed 48 h.p.i. with 4 % PFA and double labeled with mAb B6-8 (α-E2A) and pAb L133 (α-Capsid). Primary antibodies were detected using Alexa488 (E2A, green) and Alexa568 (Capsid, red) conjugated secondary antibodies. (A) The number of E2A and Capsid expressing cells, respectively, was counted in n=40 overview pictures (not shown), normalized to untreated, infected cells, and represented in bar charts. Bar charts represent average values and standard deviations based on four independent experiments. (B) H1299 cells were infected with HAdV-C5 at a multiplicity of 20 FFU/cell, and treated with the depicted concentrations of ATO at 2 h.p.i.. Viral particles were harvested 48 h.p.i. and virus yield was determined by quantitative E2A immunofluorescence staining in 293 cells. Bar charts represent average values and standard deviations based on three independent experiments. Statistically significant differences were determined using a two-sided Welch's t-test. *: P ≤ 0.05, **: P ≤ 0.01, ***: P ≤ 0.001, ****: P ≤ 0.0001. • Figure 2: ATO induces a dose dependent reduction of HAdV infectivity with minor effects on cell viability (cf. Example 2). […] 24 or 48 h.p.i., cell viability was assessed using the Promega CellTiter-Blue Cell Viability Assay system, prior to fixation with 4 % PFA and cells were double labeled with mAb B6-8 (α-E2A) and pAb L133 (α-Capsid). Primary antibodies were detected using Alexa488 (E2A, green) and Alexa647 (Capsid, red) conjugated secondary antibodies. Fluorescence intensity was measured using a Tecan Infinite 200M plate reader using an excitation and emission wavelength of 488 and 520nm for Alexa488 and 640 and 670nm for Alexa647 respectively. Fluorescence intensity was normalized to untreated, infected cells at 48h p.i.. xy charts represent average values and standard deviations based on three independent experiments measured in triplicates. (B) H1299 cells were infected with an HAdV-C5 delta E3 virus, encoding a CMV promoter driven eGFP expression cassette, at a multiplicity of 20FFU/cell and treated with the depicted concentrations of ATO at 2h p.i.; 24 or 48 h p.i. cell viability was assessed using the Promega CellTiter-Blue Cell Viability Assay system, and GFP fluorescence intensity was measured using a Tecan Infinite 200M plate reader using an excitation and emission wavelength of 488 and 520nm. Fluorescence intensity was normalized to untreated, infected cells at 48h p.i.; xy charts represent average values and standard deviations based on three independent experiments measured in triplicates. […]

[2] = tested on: HAdV-C5; assay: Virus yield / progeny production by quantitative E2A immunofluorescence staining in 293 cells (Fig. 1B)
Procedure: as §1, with “triplicates.” for “triplicates. (B) H1299 cells were infected with an HAdV-C5 delta E3 virus, encoding a CMV promoter driven eGFP expression cassette, at a multiplicity of 20FFU/cell and treated with the depicted concentrations of ATO at 2h p.i.; 24 or 48 h p.i. cell viability was assessed using the Promega CellTiter-Blue Cell Viability Assay system, and GFP fluorescence intensity was measured using a Tecan Infinite 200M plate reader using an excitation and emission wavelength of 488 and 520nm. Fluorescence intensity was normalized to untreated, infected cells at 48h p.i.; xy charts represent average values and standard deviations based on three independent experiments measured in triplicates.”

[3] = tested on: HAdV-C5 wt; assay: Tecan plate reader measurement of E2A and capsid immunofluorescence intensity in infected H1299 cells (Fig. 2A)
Procedure: • Figure 1: ATO efficiently reduces HAdV infectivity (cf. Example 1). H1299 cells were infected with HAdV-C5 wt at a multiplicity of 5 FFU/cell, treated with the depicted concentrations of ATO at 2 h.p.i., fixed 48 h.p.i. with 4 % PFA and double labeled with mAb B6-8 (α-E2A) and pAb L133 (α-Capsid). Primary antibodies were detected using Alexa488 (E2A, green) and Alexa568 (Capsid, red) conjugated secondary antibodies. (A) The number of E2A and Capsid expressing cells, respectively, was counted in n=40 overview pictures (not shown), normalized to untreated, infected cells, and represented in bar charts. Bar charts represent average values and standard deviations based on four independent experiments. (B) H1299 cells were infected with HAdV-C5 at a multiplicity of 20 FFU/cell, and treated with the depicted concentrations of ATO at 2 h.p.i.. Viral particles were harvested 48 h.p.i. and virus yield was determined by quantitative E2A immunofluorescence staining in 293 cells. Bar charts represent average values and standard deviations based on three independent experiments. Statistically significant differences were determined using a two-sided Welch's t-test. *: P ≤ 0.05, **: P ≤ 0.01, ***: P ≤ 0.001, ****: P ≤ 0.0001. • Figure 2: ATO induces a dose dependent reduction of HAdV infectivity with minor effects on cell viability (cf. Example 2). (A) H1299 cells were infected with HAdV-C5 wt at a multiplicity of 20 FFU/cell and treated with the depicted concentrations of ATO at 2 h.p.i.. 24 or 48 h.p.i., cell viability was assessed using the Promega CellTiter-Blue Cell Viability Assay system, prior to fixation with 4 % PFA and cells were double labeled with mAb B6-8 (α-E2A) and pAb L133 (α-Capsid). Primary antibodies were detected using Alexa488 (E2A, green) and Alexa647 (Capsid, red) conjugated secondary antibodies. Fluorescence intensity was measured using a Tecan Infinite 200M plate reader using an excitation and emission wavelength of 488 and 520nm for Alexa488 and 640 and 670nm for Alexa647 respectively. Fluorescence intensity was normalized to untreated, infected cells at 48h p.i.. xy charts represent average values and standard deviations based on three independent experiments measured in triplicates. (B) H1299 cells were infected with an HAdV-C5 delta E3 virus, encoding a CMV promoter driven eGFP expression cassette, at a multiplicity of 20FFU/cell and treated with the depicted concentrations of ATO at 2h p.i.; 24 or 48 h p.i. cell viability was assessed using the Promega CellTiter-Blue Cell Viability Assay system, and GFP fluorescence intensity was measured using a Tecan Infinite 200M plate reader using an excitation and emission wavelength of 488 and 520nm. Fluorescence intensity was normalized to untreated, infected cells at 48h p.i.; xy charts represent average values and standard deviations based on three independent experiments measured in triplicates. (C) H1299 cells were infected with an eGFP expressing HAdV-C5 based first generation adenoviral vector at a multiplicity of 20 FFU/cell and treated with the depicted concentrations of ATO at 2h p.i.; 24 or 48h p.i., cell viability was assessed using the Promega CellTiter-Blue Cell Viability Assay system, and GFP fluorescence intensity was measured using a Tecan Infinite 200M plate reader using an excitation and emission wavelength of 488 and 520nm. Fluorescence intensity was normalized to untreated, infected cells at 48h p..i.; xy charts represent average values and standard deviations based on three independent experiments measured in triplicates. (D) A549 cells were infected with an HAdV-C5 delta E3 virus, encoding a CMV promoter driven eGFP expression cassette, at a multiplicity of 20FFU/cell and treated with the depicted concentrations of ATO at 2h p.i.. GFP-fluorescence, as well as cell growth via phase contrast-imaging was assessed for 48 h with a 2h increment using an IncuCyte S3 Live-Cell Analysis System. […]

[4] = tested on: HAdV-C5 delta E3 virus, encoding a CMV promoter driven eGFP expression cassette; assay: GFP fluorescence of replication competent GFP-expressing virus in H1299 cells (Fig. 2B)
Procedure: • Figure 1: ATO efficiently reduces HAdV infectivity (cf. Example 1). H1299 cells were infected with HAdV-C5 wt at a multiplicity of 5 FFU/cell, treated with the depicted concentrations of ATO at 2 h.p.i., fixed 48 h.p.i. with 4 % PFA and double labeled with mAb B6-8 (α-E2A) and pAb L133 (α-Capsid). Primary antibodies were detected using Alexa488 (E2A, green) and Alexa568 (Capsid, red) conjugated secondary antibodies. (A) The number of E2A and Capsid expressing cells, respectively, was counted in n=40 overview pictures (not shown), normalized to untreated, infected cells, and represented in bar charts. Bar charts represent average values and standard deviations based on four independent experiments. (B) H1299 cells were infected with HAdV-C5 at a multiplicity of 20 FFU/cell, and treated with the depicted concentrations of ATO at 2 h.p.i.. Viral particles were harvested 48 h.p.i. and virus yield was determined by quantitative E2A immunofluorescence staining in 293 cells. Bar charts represent average values and standard deviations based on three independent experiments. Statistically significant differences were determined using a two-sided Welch's t-test. *: P ≤ 0.05, **: P ≤ 0.01, ***: P ≤ 0.001, ****: P ≤ 0.0001. • Figure 2: ATO induces a dose dependent reduction of HAdV infectivity with minor effects on cell viability (cf. Example 2). (A) H1299 cells were infected with HAdV-C5 wt at a multiplicity of 20 FFU/cell and treated with the depicted concentrations of ATO at 2 h.p.i.. 24 or 48 h.p.i., cell viability was assessed using the Promega CellTiter-Blue Cell Viability Assay system, prior to fixation with 4 % PFA and cells were double labeled with mAb B6-8 (α-E2A) and pAb L133 (α-Capsid). Primary antibodies were detected using Alexa488 (E2A, green) and Alexa647 (Capsid, red) conjugated secondary antibodies. Fluorescence intensity was measured using a Tecan Infinite 200M plate reader using an excitation and emission wavelength of 488 and 520nm for Alexa488 and 640 and 670nm for Alexa647 respectively. Fluorescence intensity was normalized to untreated, infected cells at 48h p.i.. xy charts represent average values and standard deviations based on three independent experiments measured in triplicates. (B) H1299 cells were infected with an HAdV-C5 delta E3 virus, encoding a CMV promoter driven eGFP expression cassette, at a multiplicity of 20FFU/cell and treated with the depicted concentrations of ATO at 2h p.i.; 24 or 48 h p.i. cell viability was assessed using the Promega CellTiter-Blue Cell Viability Assay system, and GFP fluorescence intensity was measured using a Tecan Infinite 200M plate reader using an excitation and emission wavelength of 488 and 520nm. Fluorescence intensity was normalized to untreated, infected cells at 48h p.i.; xy charts represent average values and standard deviations based on three independent experiments measured in triplicates. (C) H1299 cells were infected with an eGFP expressing HAdV-C5 based first generation adenoviral vector at a multiplicity of 20 FFU/cell and treated with the depicted concentrations of ATO at 2h p.i.; 24 or 48h p.i., cell viability was assessed using the Promega CellTiter-Blue Cell Viability Assay system, and GFP fluorescence intensity was measured using a Tecan Infinite 200M plate reader using an excitation and emission wavelength of 488 and 520nm. […]

[5] = ATO concentration not stated at the place

arsenic trioxide [ATO]
reduction of early viral DNA binding protein E2A expression ([1]; 1µM ATO, H1299, 5 FFU/cell, ATO at 2 h.p.i., 48 h.p.i.): 40%
inhibition of late capsid protein expression ([1]; 2.0µM ATO, H1299, 5 FFU/cell, ATO at 2 h.p.i., 48 h.p.i.): ~80%
reduction in cells expressing E2A [1, 5]: up to 40%
reduction in cells expressing capsid [1, 5]: up to 80%
reduction of virus yield ([2]; 1µM ATO, H1299, 20 FFU/cell, harvested 48 h.p.i.): 80%
virus particle synthesis / virus yield ([2]; 2µM ATO, compared to non-treated infected control cells): abolished; also recorded: completely abolishing
reduction in virus yield ([2]; ATO concentration not given): 80%
reduction of capsid expression ([3]; 2µM ATO, 48h p.i.): 40%
reduction of E2A protein expression ([3]; 4µM ATO, 24h p.i.): more than 50%
E2A expression compared to the untreated control ([3]; 4µM ATO, 24h p.i., Fig. 2A): less than 50%
capsid detection / capsid expression ([3]; 4µM ATO, 48h p.i.): complete loss
E2A expression reduced to ([3]; 4µM ATO, 48h p.i., remaining expression): 60%
HAdV E2A protein expression ([3]; 8µM ATO, 24h p.i., Fig. 2A): completely block; also recorded: completely blocking
E2A expression ([3]; 8µM ATO, 48h p.i.): not detectable; also recorded: completely blocking
reduction of E2A protein expression ([3]; 8µM ATO, 48h p.i.): up to 60%
pIC50 ([3]; 24h p.i., Fig. 2A, read-out: IC50 (E2A expression)): 5.72
pIC50 ([3]; 48h p.i., Fig. 2A, read-out: IC50 (E2A expression)): 5.39
pIC50 ([3]; 48h p.i., Fig. 2A, read-out: IC50 (capsid expression)): 5.68
inhibition of adenoviral infection ([4]; 2µM ATO, 48h p.i.): more than 50%
inhibition of adenoviral infection ([4]; 4µM ATO, 24h p.i.): up to 75%

— patent EP3815699A1, “NEW MEANS AND METHODS FOR THERAPY AND DIAGNOSIS OF […]” (Technische Universität München, priority 2019, dated 2021)
